Data: PubChem BioAssay (NCI)
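These data come from cells grown in 96-well plates and exposed to compound for 48 hours at five concentrations. Definition used: TGI = concentration required for complete inhibition of growth.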

What was measured:
Experiment in all cases: NCI-60 cell line screen, 48 h
DLD-1 colon = system: DLD-1 colon
SK-OV-3 ovarian = system: SK-OV-3 ovarian
HOP-92 NSCLC = system: HOP-92 NSCLC
OVCAR-4 ovarian = system: OVCAR-4 ovarian
SR leukemia = system: SR leukemia
HCT-116 colon = system: HCT-116 colon
SF-539 CNS = system: SF-539 CNS
NCI-H460 lung = system: NCI-H460 lung
EKVX NSCLC = system: EKVX NSCLC
NCI-H226 lung = system: NCI-H226 lung
RXF-631 renal = system: RXF-631 renal
XF 498 CNS = system: XF 498 CNS
HOP-62 NSCLC = system: HOP-62 NSCLC
HCT-15 colon = system: HCT-15 colon
A498 renal = system: A498 renal
SF-268 CNS = system: SF-268 CNS
TK-10 renal = system: TK-10 renal
MOLT-4 leukemia = system: MOLT-4 leukemia
A549 NSCLC = system: A549 NSCLC
OVCAR-3 ovarian = system: OVCAR-3 ovarian
CAKI-1 renal = system: CAKI-1 renal
SNB-78 CNS = system: SNB-78 CNS
KM20L2 colon = system: KM20L2 colon
RPMI-8226 leukemia = system: RPMI-8226 leukemia
SW-620 colon = system: SW-620 colon
M19-MEL melanoma = system: M19-MEL melanoma
U251 CNS = system: U251 CNS
UACC-62 melanoma = system: UACC-62 melanoma
LOX IMVI melanoma = system: LOX IMVI melanoma
SK-MEL-5 melanoma = system: SK-MEL-5 melanoma
NCI-H522 lung = system: NCI-H522 lung
SNB-19 CNS = system: SNB-19 CNS
COLO 205 colon = system: COLO 205 colon
DMS 114 small cell lung = system: DMS 114 small cell lung
K-562 leukemia = system: K-562 leukemia
RXF 393 renal = system: RXF 393 renal
SN12C renal = system: SN12C renal
IGROV1 ovarian = system: IGROV1 ovarian
HT29 colon = system: HT29 colon
SNB-75 CNS = system: SNB-75 CNS
LXFL 529 NSCLC = system: LXFL 529 NSCLC
DMS 273 small cell lung = system: DMS 273 small cell lung
SF-295 CNS = system: SF-295 CNS
UACC-257 melanoma = system: UACC-257 melanoma
M14 melanoma = system: M14 melanoma
HL-60(TB) leukemia = system: HL-60(TB) leukemia
786-0 renal = system: 786-0 renal
HCC-2998 colon = system: HCC-2998 colon
MALME-3M melanoma = system: MALME-3M melanoma
KM12 colon = system: KM12 colon
NCI-H23 lung = system: NCI-H23 lung
OVCAR-8 ovarian = system: OVCAR-8 ovarian
UO-31 renal = system: UO-31 renal
CCRF-CEM leukemia = system: CCRF-CEM leukemia
OVCAR-5 ovarian = system: OVCAR-5 ovarian
ACHN renal = system: ACHN renal
HOP-18 NSCLC = system: HOP-18 NSCLC
SK-MEL-28 melanoma = system: SK-MEL-28 melanoma
SK-MEL-2 melanoma = system: SK-MEL-2 melanoma

Measured: TGI

Cc1ccc(S(=O)(=O)C(CC(NC=O)S(=O)(=O)c2ccc(C)cc2)NC=O)cc1 (stereo not drawn)
not listed: OVCAR-5 ovarian | ACHN renal | HOP-18 NSCLC | SK-MEL-28 melanoma | SK-MEL-2 melanoma
> 100 µM: all other assays above

CCCCCCCCCCCCCC(=O)NCO
not listed: SR leukemia | MOLT-4 leukemia | CAKI-1 renal | K-562 leukemia | DMS 273 small cell lung
> 100 µM: all other assays above
